Values of other authors in patent US20230364242A1, “WATER-SOLUBLE COMPLEX CONTAINING BETA BLOCKER AND LECITHIN” (NISSAN CHEMICAL CORPORATION, priority 2020, published 2023).

Settings: literature reports

CC(C)NCC(O)COc1cccc2ccccc12 (stereo not shown) [propranolol]
photolysis: decomposition particularly proceeds in an aqueous solution
